The supplement of paper PMC11061612

Experiments:
Test in all cases: Bliss excess, mean over the matrix (fraction); higher = more synergy
[1] = system: KU812 (Chronic Myelogenous Leukemia)
Outline: (§1)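 Cell lines in DMEM/F12 or RPMI with 10% FBS were plated in 1536-well plates, held 24 hours at 37°C, 5% CO2, then given two-drug dose matrices for 72 hours (DMSO typically 0.2%). Viability was read by CellTiter-Glo 2.0 luminescence and scaled as inhibition from 0 (vehicle wells) to 1 (blank wells). Combination Emax is the second-highest inhibition in the matrix; Bliss excess is observed combination effect minus expected EA + EB − EA·EB, EA and EB being single-agent effects.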

[2] = system: MN-60 (B-Lymphoblastic Leukemia)
Outline: as §1

[3] = system: KYSE-270 (Esophageal Squamous Cell Carcinoma)
Outline: as §1

[4] = system: VMRC-RCZ (Kidney Carcinoma)
Outline: as §1

[5] = system: T-T (Esophageal Squamous Cell Carcinoma)
Outline: as §1

[6] = system: COR-L279 (Small Cell Lung Carcinoma)
Outline: as §1

[7] = system: KP-3 (Pancreatic Carcinoma)
Outline: as §1

[8] = system: NCI-H526 (Small Cell Lung Carcinoma)
Outline: as §1

[9] = system: NCI-H2731 (Mesothelioma)
Outline: as §1

[10] = system: NCI-H520 (Squamous Cell Lung Carcinoma)
Outline: as §1

[11] = system: NCI-H3122 (Lung Adenocarcinoma)
Outline: as §1

[12] = system: NCI-H929 (Plasma Cell Myeloma)
Outline: as §1

[13] = system: CW-2 (Colorectal Carcinoma)
Outline: as §1

[14] = system: M059J (Glioblastoma)
Outline: as §1

[15] = system: ST486 (Burkitt's Lymphoma)
Outline: as §1

[16] = system: MOG-G-CCM (Low Grade Glioma)
Outline: as §1

[17] = system: SK-GT-4 (Esophageal Adenocarcinoma)
Outline: as §1

[18] = system: DMS-114 (Small Cell Lung Carcinoma)
Outline: as §1

[19] = system: SJSA-1 (Osteosarcoma)
Outline: as §1

[20] = system: NCCIT (Other Solid Carcinomas)
Outline: as §1

Compound	Bliss excess [1]	Bliss excess [2]	Bliss excess [3]	Bliss excess [4]	Bliss excess [5]	Bliss excess [6]	Bliss excess [7]	Bliss excess [8]	Bliss excess [9]	Bliss excess [10]	Bliss excess [11]	Bliss excess [12]	Bliss excess [13]	Bliss excess [14]	Bliss excess [15]	Bliss excess [16]	Bliss excess [17]	Bliss excess [18]	Bliss excess [19]	Bliss excess [20]
C[C@@H](Oc1cc(-c2cnn(C3CCNCC3)c2)cnc1N)c1c(Cl)ccc(F)c1Cl [Crizotinib] + Cn1cnc2c(F)c(Nc3ccc(Br)cc3Cl)c(C(=O)NOCCO)cc21 [Selumetinib] (first compound max 10 µM, 7x7, partner max 10 µM)	-0.0466	-0.0797	0.0039	-0.0338	0.0159	-0.0192	-0.0229	-0.0142	-0.0382	-0.0779	-0.0479	-0.0421	-0.0423	-0.0562	-0.0819	-0.0423	-0.0405	-0.0814	0.0262	-0.0503
N#Cc1cnc(Nc2cc(NC[C@H]3CNCCO3)c(C(F)(F)F)cn2)cn1 [SRA737] + C=CCn1c(=O)c2cnc(Nc3ccc(N4CCN(C)CC4)cc3)nc2n1-c1cccc(C(C)(C)O)n1 [AZD1775] (first compound max 10 µM, partner max 1 µM)	0.0668	-0.0125	0.136	0.0259	0.0665	0.116	0.0086	0.0145	0.0007	0.055	0.0718	0.0295	0.0162	0.073	0.0356	0.0229	0.003	-0.0231	0.0091	0.0855
O=C(c1cc(Cc2n[nH]c(=O)c3ccccc23)ccc1F)N1CCN(C(=O)C2CC2)CC1 [Olaparib] + CN(CC[C@H](CSC1=CC=CC=C1)NC2=C(C=C(C=C2)S(=O)(=O)NC(=O)C3=CC=C(C=C3)N4CCC(CC4)[C@H](C5=CC=CC=C5C6=CC=C(C=C6)Cl)O)S(=O)(=O)C(F)(F)F)CCO [AZD4320] (first compound max 10 µM, 7x7, partner max 1 µM)	-0.0517	-0.044	-0.0221	-0.064	-0.0174	0.0282	-0.0422	0.0311	-0.0491	-0.0283	-0.0184	-0.0336	-0.0353	-0.0174	-0.0192	-0.0282	-0.0508	-0.0971	-0.0509	-0.0075
C[C@@H]1COCCN1c1cc(C2([S@](C)(=N)=O)CC2)nc(-c2ccnc3[nH]ccc23)n1 [AZD6738] + C1CC(C1)(C(=O)[O-])C(=O)[O-].N.N.[Pt+2] [Carboplatin] (first compound max 10 µM, 7x7, partner max 10 µM)	-0.0691	-0.119	0.0445	-0.0249	-0.0661	-0.0178	-0.0087	-0.0076	-0.0109	-0.0017	-0.0999	-0.0536	-0.0212	-0.0647	-0.0501	-0.0204	-0.0516	-0.095	-0.0152	-0.0274
Cc1c2c(nn1C)CSCc1cc(n(C)n1)CSc1cc(c3ccccc3c1)OCCCc1c(C(=O)O)n(C)c3c-2c(Cl)ccc13 [AZD5991] + CC(=O)O[C@H]1C(=O)[C@@]2(C)[C@H]([C@H](OC(=O)c3ccccc3)[C@]3(O)C[C@H](OC(=O)[C@H](O)[C@@H](NC(=O)c4ccccc4)c4ccccc4)C(C)=C1C3(C)C)[C@]1(OC(C)=O)CO[C@@H]1C[C@@H]2O [Paclitaxel] (first compound max 1 µM, 7x7, partner max 3 µM)	-0.108	-0.0293	-0.0116	-0.0234	-0.0016	0.0035	-0.0622	0.0061	0.0237	-0.0478	-0.0003	-0.0219	-0.0199	-0.0193	-0.0046	0.0341	-0.0197	0.0975	-0.0168	0.0449
CN(CCO)CC[C@H](CSc1ccccc1)Nc1ccc(S(=O)(=O)NC(=O)c2ccc(N3CCC([C@@H](O)c4ccccc4-c4ccc(Cl)cc4)CC3)cc2)cc1S(=O)(=O)C(F)(F)F [AZD4320] + CS(=O)(=O)CCNCc1ccc(-c2ccc3ncnc(Nc4ccc(OCc5cccc(F)c5)c(Cl)c4)c3c2)o1 [Lapatinib] (first compound max 1 µM, 7x7, partner max 10 µM)	0.0801	-0.0716	-0.0254	-0.0072	-0.0055	0.0862	-0.0588	0.0898	-0.0076	-0.0382	0.0006	0.0248	-0.0322	0.0681	0.0668	-0.0278	0.0451	0.0146	-0.085	0.0212
O=C(c1cc(Cc2n[nH]c(=O)c3ccccc23)ccc1F)N1CCN(C(=O)C2CC2)CC1 [Olaparib] + COc1nnc2ccc(N3CCC(c4ccc(OCCN5CCN(C)C(=O)[C@H]5C)cc4)CC3)nn12 [AZD5153] (first compound max 10 µM, 7x7, partner max 1 µM)	-0.0778	-0.0721	0.0235	-0.0243	-0.0283	0.0327	-0.0554	-0.0689	-0.0208	-0.0134	-0.0021	-0.0516	-0.0592	-0.0672	-0.0433	-0.0569	-0.0894	-0.13	-0.0323	-0.0739
C[C@@H](Nc1cc(F)cc(F)c1)c1cc(C(=O)N(C)C)cc2c(=O)cc(N3CCOCC3)oc12 [AZD8186] + CC(=O)c1c(C)c2cnc(Nc3ccc(N4CCNCC4)cn3)nc2n(C2CCCC2)c1=O [Palbociclib] (first compound max 10 µM, 7x7, partner max 10 µM)	0.0412	-0.0082	-0.0036	0.12	0.0135	0.147	0.0123	-0.0207	-0.0036	0.111	0.0528	-0.0272	0.0464	-0.006	0.0478	0.0077	-0.0649	0.0178	-0.0268	0.0183
C[C@@H](Oc1cc(-c2cnn(C3CCNCC3)c2)cnc1N)c1c(Cl)ccc(F)c1Cl [Crizotinib] + CC1=C(C(=CC=C1)Cl)NC(=O)C2=CN=C(S2)NC3=CC(=NC(=N3)C)N4CCN(CC4)CCO [Dasatinib] (first compound max 10 µM, 7x7, partner max 2 µM)	0.0121	-0.0074	0.0481	0.0518	0.0322	0.0599	-0.057	-0.0339	0.0443	0.0375	-0.0882	-0.0147	-0.0315	0.024	0.0506	0.0574	0.0033	-0.0562	-0.0238	-0.0416
CN(CCO)CC[C@H](CSc1ccccc1)Nc1ccc(S(=O)(=O)NC(=O)c2ccc(N3CCC([C@@H](O)c4ccccc4-c4ccc(Cl)cc4)CC3)cc2)cc1S(=O)(=O)C(F)(F)F [AZD4320] + CC(=O)O[C@H]1C(=O)[C@@]2(C)[C@H]([C@H](OC(=O)c3ccccc3)[C@]3(O)C[C@H](OC(=O)[C@H](O)[C@@H](NC(=O)c4ccccc4)c4ccccc4)C(C)=C1C3(C)C)[C@]1(OC(C)=O)CO[C@@H]1C[C@@H]2O [Paclitaxel] (first compound max 1 µM, 7x7, partner max 3 µM)	-0.0252	0.0332	0.0171	0.128	0.0528	0.0141	0.131	0.0193	0.0876	0.0142	0.0379	-0.0687	-0.0328	0.0756	-0.0016	0.0506	0.0543	0.0486	0.0637	0.0317
N#Cc1cnc(Nc2cc(NC[C@H]3CNCCO3)c(C(F)(F)F)cn2)cn1 [SRA737] + O=c1[nH]cc(F)c(=O)[nH]1 [5-Fluorouracil] (first compound max 10 µM, 7x7, partner max 20 µM)	-0.0726	-0.0751	0.127	-0.0163	0.0483	0.077	–	0.0854	-0.0374	-0.0306	0.0315	0.0184	0.0039	0.0052	0.0098	-0.001	-0.0187	-0.0757	0.0126	-0.0561
CC1(C)CCC(CN2CCN(c3ccc(C(=O)NS(=O)(=O)c4ccc(NCC5CCOCC5)c([N+](=O)[O-])c4)c(Oc4cnc5[nH]ccc5c4)c3)CC2)=C(c2ccc(Cl)cc2)C1 [Venetoclax] + CS(=O)(=O)CCNCc1ccc(-c2ccc3ncnc(Nc4ccc(OCc5cccc(F)c5)c(Cl)c4)c3c2)o1 [Lapatinib] (first compound max 1 µM, 7x7, partner max 10 µM)	0.0282	-0.0502	-0.0175	-0.047	-0.0066	-0.0185	-0.0487	0.105	-0.0257	-0.0169	-0.0229	-0.0098	-0.0116	-0.0225	0.0224	-0.0568	-0.0436	-0.0443	-0.002	-0.024
Cc1c2c(nn1C)CSCc1cc(n(C)n1)CSc1cc(c3ccccc3c1)OCCCc1c(C(=O)O)n(C)c3c-2c(Cl)ccc13 [AZD5991] + CS(=O)(=O)CCNCc1ccc(-c2ccc3ncnc(Nc4ccc(OCc5cccc(F)c5)c(Cl)c4)c3c2)o1 [Lapatinib] (first compound max 1 µM, 7x7, partner max 10 µM)	-0.0005	-0.0584	0.016	-0.0195	0.0522	-0.0053	-0.003	0.0226	0.0234	0.0111	-0.0164	-0.0113	0.0142	-0.0103	-0.0655	-0.0322	0.0391	-0.0358	-0.0115	-0.0119
O=C(c1cc(Cc2n[nH]c(=O)c3ccccc23)ccc1F)N1CCN(C(=O)C2CC2)CC1 [Olaparib] + Cc1c2c(nn1C)CSCc1cc(n(C)n1)CSc1cc(c3ccccc3c1)OCCCc1c(C(=O)O)n(C)c3c-2c(Cl)ccc13 [AZD5991] (first compound max 10 µM, 7x7, partner max 1 µM)	-0.0111	-0.0496	-0.0303	-0.049	-0.0217	0.0494	-0.0576	0.0251	-0.0452	-0.0289	-0.0156	-0.0215	-0.03	0.0008	0.0593	-0.0519	-0.061	0.0106	-0.0401	0.0176
